The values that follow are results of earlier work, collected in patent US5064812A, “Metal complexes of N-acetyl-glucosaminyl-N-acetyl-muramoyl-L-alanyl-D-isoglutaminyl-(L)-mes o-diamino-pimelyl-(D-amide)-(L)-D-alanyl-D-alanine and their use in pharmaceuticals” (Sour Pliva, priority 1986, dated 1991).

The conditions of data set [1]: prior art literature.
The conditions of data set [2]: prior art literature. The source holds these as a separate data set.

Regarding “N-acetyl-glucosaminyl-N-acetyl-muramoyl-L-alanyl-D-isoglutaminyl-(L)-meso- diamino-pimelyl-(D-amide)-(L)-D-alanyl-D-alanine [PMG]”, the antimetastatic activity entry in data set [1] was “antimetastatic activity”. The immunostimulating activity entry in data set [2] is on record as “significant immunostimulating”.
